From article PMC5883364 (Malaria Journal, 2018)
“Also recorded” adds a separate entry of the source. Like-named read-outs stand apart in the source and are kept apart here.

Key:
[1] = system: P. falciparum Dd2 (chloroquine-resistant, mefloquine-resistant); assay: SYBR Green I assay, IC50, strain Dd2; format: cell-based, Plasmodium falciparum; conditions: for Resistance Index RIa = IC50 (Dd2)/IC50 (3D7): Dd2 vs 3D7; for antiplasmodial activity of building blocks in words: tested separately, Dd2 and 3D7 (Additional file 1)
Experimental: (§1) Staging and parasitaemia were determined by light microscopy of Giemsa-stained thin blood smears. Anti-malarial activity was determined using the SYBR Green I assay, as previously described.

[2] = system: P. falciparum 3D7 (chloroquine and mefloquine sensitive); assay: SYBR Green I assay, IC50, strain 3D7; format: cell-based, Plasmodium falciparum
Experimental: as §1

[3] = system: HepG2-A16 (human hepatoma) cells; conditions: for LD50 HepG2: human, 48 h; for Selectivity index LD50 (HepG2)/IC50 (3D7): HepG2 vs 3D7; for Selectivity index LD50 (HepG2)/IC50 (Dd2): HepG2 vs Dd2; for Selectivity index LD50 (HepG2)/IC50 (IPC5202): HepG2 vs IPC5202
Experimental: (§2) Cytotoxicity was assessed on the mammalian cell lines HepG2-A16 (human hepatoma) and V79 (Chinese hamster lung), using a MTT based assay, as previously described. […] V79 and HepG2 cell lines were incubated for 24 and 48 h, respectively (media changed at 24 h intervals). Absorbance was read at 570 nm on a multi-mode microplate reader (Triad, Dynex Technologies), to produce a log dose-dependence curve. The LD50 value for each compound was estimated by non-linear interpolation of the dose-dependence curve (GraphPad Software).

[4] = system: V79 (Chinese hamster lung) cells; conditions: for LD50 V79: Chinese hamster, 24 h; for Selectivity index LD50 (V79)/IC50 (3D7): V79 vs 3D7; for Selectivity index LD50 (V79)/IC50 (Dd2): V79 vs Dd2; for Selectivity index LD50 (V79)/IC50 (IPC4912): V79 vs IPC4912; for Selectivity index LD50 (V79)/IC50 (IPC5202): V79 vs IPC5202
Experimental: as §2

[5] = Solubility remark in the IC50 table; format: physicochemical; parameters: key: ?: Low solubility; conditions: symbol printed in the IC50 cells
From the text: Supplement 12936_2018_2281_MOESM1_ESM.docx, table 1: Table 1: Antiplasmodial activity in vitro (IC50) against resistant and sensitive P. falciparum strains. | column: P. falciparum IC50 ± SD (nM)

[6] = system: P. falciparum IPC5202 (artemisinin-resistant, K13 R539T); assay: SYBR Green I assay, IC50, strain IPC5202; format: cell-based, Plasmodium falciparum; conditions: for Resistance Index RIb = IC50 (IPC5202)/IC50 (3D7): IPC5202 vs 3D7; for IC50: Plasmodium falciparum, read-out: P. falciparum IC50 ± SD, IPC5202, strain IPC5202
Experimental: as §1

[7] = system: P. falciparum IPC4912 (artemisinin-resistant, K13 I543T); assay: SYBR Green I assay, IC50, strain IPC4912; format: cell-based, Plasmodium falciparum; conditions: for Resistance Index RIc = IC50 (IPC4912)/IC50 (3D7): IPC4912 vs 3D7; for IC50: Plasmodium falciparum, read-out: P. falciparum IC50 ± SD, IPC4912
Experimental: Staging and parasitaemia were determined by light microscopy of Giemsa-stained thin blood smears. Anti-malarial activity was determined using the SYBR Green I assay, as previously described. Briefly, early ring stage parasites (> 80% of rings) were challenged with a 1:3 serial dilution of each compound, in concentrations ranging from 10,000–0.169 nM. Fluorescence intensity was measured with a multi-mode microplate reader (Triad, Dynex Technologies), with excitation and emission wavelengths of 485 and 535 nm, respectively, and analysed by nonlinear regression using GraphPad Prism to determine IC50 values.

[8] = system: Plasmodium berghei NK65; assay: Peters' 4-day suppressive test in Swiss albino mice; format: in vivo; conditions: 50 mg/kg/day oral for 4 days; for inhibition in vivo at 50 mg/kg/day: Plasmodium berghei
Experimental: In vivo tests were performed following the Guidelines for Ethical Conduct in The Care and Use of Animals of the Federal University of Rio Grande do Norte—Brazil (CEUA/UFRN/46/2013). Evaluation of anti-malarial activity in vivo was carried out using the Peters’ 4-day suppressive test, with modifications, as previously described. Swiss albino mice were infected with Plasmodium berghei NK65 and randomly allocated to groups of five animals. Animals were treated with 50 mg/kg/day of each of the tested compounds (dissolved in PBS containing 1% DMSO), administrated orally, for four consecutive days. The control group was treated with a solution of PBS/1% DMSO. On days 5 (D5), 7 (D7) and 10 (D10) after parasite inoculation, tail blood smears were Giemsa-stained and examined microscopically to estimate parasitaemia. Acute toxicity testing was carried out to determine adverse effects due to compounds (including weight loss, hair appearance, skin wounds and behavioural changes), and recorded daily.

[9] = Plasmodium falciparum, DD2, strain Dd2, read-out: P. falciparum IC50 ± SD, Dd2
[10] = Plasmodium falciparum, 3D7, strain 3D7, read-out: P. falciparum IC50 ± SD, 3D7
[11] = Plasmodium falciparum, 3D7, read-out: P. falciparum IC50 ± SD, 3D7

| SMILES | IC50 [1, 9] | IC50 [2, 10] | LD50 HepG2 [3] | LD50 V79 [4] | Resistance Index RIa = IC50 (Dd2)/IC50 (3D7) [1] | Selectivity index LD50 (HepG2)/IC50 (3D7) [3] | Selectivity index LD50 (HepG2)/IC50 (Dd2) [3] | Selectivity index LD50 (V79)/IC50 (3D7) [4] | Selectivity index LD50 (V79)/IC50 (Dd2) [4] | also measured |
| --- | --- | --- | --- | --- | --- | --- | --- | --- | --- | --- |
| CC(C)(C)OC(=O)NCCCCN [LC64, tert-butyl(4-aminobutyl)carbamate] | > 10000 nM | > 10000 nM | 1.0 mM | > 1 mM |  |  |  |  |  |  |
| O=S1(=O)N=C(Cl)c2ccccc21 [LC60, 3-chloro-1,2-benzisothiazole-1,1-dioxide] | > 10000 nM | > 10000 nM | 1.0 mM | > 1 mM |  |  |  |  |  |  |
| NCCCCNC1CCC2(CC1)OOC1(O2)C2CC3CC(C2)CC1C3 (centres unmarked) [MIS16] |  |  | 1.0 mM | > 1 mM |  |  |  |  |  | solubility remark (no IC50 obtained) [5]: ? |
| NCCCCNC(=O)C1CCC2(CC1)OOC1(O2)C2CC3CC(C2)CC1C3 (centres unmarked) [MIS15] |  |  | 1.0 mM | > 1 mM |  |  |  |  |  | solubility remark (no IC50 obtained) [5]: ? |
| c1ccc(N2N=NNC23OOC2(O3)C3CC4CC(C3)CC2C4)cc1 (centres unmarked) [LC28] | 1130 ± 188 nM | 3660 ± 1490 nM | 1.0 mM | > 1 mM | 0.3 | 273.3 | 887.3 | 273.3 | 887.3 |  |
| O=c1nn[nH]n1-c1ccccc1 [LC133, 1-phenyl-1H-tetrazol-5-one] | > 10000 nM | > 10000 nM | 1.0 mM | > 1 mM |  |  |  |  |  | antiplasmodial activity of building blocks in words [1]: devoid of antiplasmodial activity |
| O=C(Nc1nnn[nH]1)C1CCC2(CC1)OOC1(O2)C2CC3CC(C2)CC1C3 (centres unmarked) [LC142] | 107 ± 45.4 nM | 117 ± 33.2 nM | 1.0 mM | > 1 mM | 0.9 | 8568.9 | 9354.5 | 8568.9 | 9354.5 |  |
| C[C@H]1[C@H](OC(=O)CCC(=O)O)O[C@@H]2O[C@@]3(C)CC[C@H]4[C@H](C)CC[C@@H]1[C@@]24OO3 [ATN, artesunate, reference compound] | 4.6 ± 1.4 nM | 5.1 ± 0.1 nM |  |  | 0.9 |  |  |  |  | Resistance Index RIb = IC50 (IPC5202)/IC50 (3D7) [6]: 0.67; IC50 [6]: 3.4 ± 0.1 nM; Resistance Index RIc = IC50 (IPC4912)/IC50 (3D7) [7]: 0.76; IC50 [7]: 3.9 ± 1.2 nM |
| C[C@@H]1CC[C@H]2[C@@H](C)C(=O)O[C@@H]3O[C@@]4(C)CC[C@@H]1[C@]32OO4 [ART, artemisinin, reference compound] | 2.5 ± 0.1 nM | 4 ± 0.1 nM | 0.4 mM | > 0.4 mM |  | 104844.6 | 168515.4 | 104844.6 | 168515.4 | IC50 ([1]; strain Dd2, read-out: P. falciparum IC50 ± SD, Dd2): 2.47 ± 0.1 nM; IC50 ([2]; strain 3D7, read-out: P. falciparum IC50 ± SD, 3D7): 3.97 ± 0.08 nM; Resistance Index RIb = IC50 (IPC5202)/IC50 (3D7) [6]: 8.32; IC50 [6]: 33.3 ± 8 nM; Resistance Index RIc = IC50 (IPC4912)/IC50 (3D7) [7]: 3.32; IC50 [7]: 13.3 ± 2.2 nM; Selectivity index LD50 (HepG2)/IC50 (IPC4912) ([3]; HepG2 vs IPC4912): 31295.7; Selectivity index LD50 (HepG2)/IC50 (IPC5202) [3]: 12499.5; Selectivity index LD50 (V79)/IC50 (IPC4912) [4]: 31295.7; Selectivity index LD50 (V79)/IC50 (IPC5202) [4]: 12499.5 |
| Cn1nnc(N)n1 [LC126II, 2-methyl-2H-tetrazole-5-amine] |  |  |  |  |  |  |  |  |  | IC50 ([1]; Plasmodium falciparum, DD2, read-out: P. falciparum IC50 ± SD, Dd2): > 10000 nM; antiplasmodial activity of building blocks in words [1]: devoid of antiplasmodial activity; IC50 [2, 11]: > 10000 nM |
| NCC1CCC2(CC1)OOC1(O2)C2CC3CC(C2)CC1C3 (centres unmarked) [LC95] | 56.3 ± 1 nM | 29.6 ± 5.18 nM | 1.0 mM | > 1 mM |  | 3441.7 | 1784.7 | 3441.7 | 1784.7 |  |
| c1ccc(-n2nnnc2OCC2CCC3(CC2)OOC2(O3)C3CC4CC(C3)CC2C4)cc1 (centres unmarked) [LC132] |  |  | 1.0 mM | > 1 mM | 1.1 | 41322.3 | 37596.9 | 41322.3 | 37596.9 | times less active than LC131 or LC136 ([1]; in vitro, strain not stated): up to 12; Resistance Index RIb = IC50 (IPC5202)/IC50 (3D7) [6]: 1.03; IC50 [6]: 25 ± 7.4 nM; Resistance Index RIc = IC50 (IPC4912)/IC50 (3D7) [7]: 0.81; IC50 [7]: 19.7 ± 3.4 nM; Selectivity index LD50 (HepG2)/IC50 (IPC5202) [3]: 40000.0; Selectivity index LD50 (V79)/IC50 (IPC4912) [4]: 50761.4; Selectivity index LD50 (V79)/IC50 (IPC5202) [4]: 40000.0; in vivo outcome against P. berghei in words ([8]; followed to day 10): recrudescence also occurred on day 10; also recorded: allowed recrudescence on day 10; inhibition in vivo at 50 mg/kg/day ([8]; 120 h, mice, day 5, vs control group, read-out: % inhibition of parasite growth, Day 5 (converted)): 100%; inhibition in vivo at 50 mg/kg/day ([8]; 168 h, mice, day 7, vs control group, read-out: % inhibition of parasite growth, Day 7 (converted)): 100%; inhibition in vivo at 50 mg/kg/day ([8]; 240 h, mice, day 10, vs control group, read-out: % inhibition of parasite growth, Day 10 (converted)): 94.5%; Mean parasitaemia ± SD, Day 5 ([8]; mice, day 5): 0%; Mean parasitaemia ± SD, Day 7 ([8]; mice, day 7): 0%; Mean parasitaemia ± SD, Day 10 ([8]; mice, day 10): 0.31 ± 0.10% |
| CCN(CC)CCCC(C)Nc1ccnc2cc(Cl)ccc12 (centres unmarked) [CQ, chloroquine, reference compound] |  |  |  |  |  |  |  |  |  | IC50 ([1]; Plasmodium falciparum, DD2, read-out: P. falciparum IC50 ± SD, Dd2, strain Dd2): 340 ± 20.7 nM; IC50 ([1]; read-out: P. falciparum IC50 ± SD, Dd2, strain Dd2): 340 ± 20.7 nM; IC50 [2, 11]: 15.8 ± 0.8 nM |
